The source of these data is US20250127159A1, “PAPER-BASED CRYOPRESERVATION OF MAMMALIAN CELL AGGREGATES” (New York University in Abu Dhabi Corporation, priority 2023, published 2025).

Bounds are passed on as bounds.

The subject of series [1] is U87 spheroids. The series is described as follows: WST-1 metabolic activity of U87 spheroids under drug or DMSO treatment. The format is cell-based.
Experimental: (§1) The spheroids were subjected to drug testing at varying concentrations, with DMSO serving as a solvent control. This experimental approach aimed to dissect the impact of both DMSO and drug compounds on the metabolic activity and viability of U87 spheroids.
(§2) Control tests were first conducted with DMSO at concentrations of 1%, 2.5%, 5%, 10%, and 20% (v/v) to assess its cytotoxic effects independently of drug action. The metabolic activity of the spheroids was monitored at 0, 6, 12, 24, and 48 hours, followed by a live/dead assay at 48 hours to assess cell viability.
(§3) Spheroid metabolic activity was measured at 6, 12, 24, and 48 hours using the WST-1 assay, and viability was assessed at 48 hours via the live/dead assay.
The nature of series [2]: in vitro. Particulars: human.
Experimental: as §1, §2, §3
For series [3], the system named is U87 spheroids. The series is described as follows: live/dead viability assay of U87 spheroids at 48 hours.
Experimental: as §1, §2, §3

What is called viability is a per cent measure of how many cells are alive, often set against a control.

Take `N.N.[Cl][Pt][Cl]` [Cisplatin]: in series [1] (cryopreserved spheroids, 10 μM and above), the “response at higher doses” value was “delayed response”. In addition, the metabolic activity entry is listed as “metabolic activity decreasing” in series [1] (cryopreserved spheroids, doses as low as 0.1 μM) and “significantly reduced metabolic activity” in series [1] (normally grown spheroids, doses ≥10 μM).

In the case of `C[S+](C)[O-]` [DMSO, dimethyl sulfoxide], in series [1] (cryopreserved spheroids, 10% and 20% DMSO), the metabolic activity entry is listed as “declining sharply”. Also, the metabolic activity entry in series [1] (normally grown spheroids, 1% DMSO (v/v), over 48 hours) was “linear increase in metabolic activity”. For the same compound, in series [1] (normally grown spheroids, higher concentrations (5%, 10%, 20% DMSO)), the metabolic activity entry is recorded as “temporary reductions in metabolic activity at the 6-hour mark, followed by partial recovery”. For the same compound, in series [2], the viability at 48 h, 1 % (v/v) is over 99%; the viability at 48 h, 5 % (v/v) was over 99%; the viability at 48 h, 10 % (v/v) is under 50%; the viability at 48 h, 20 % (v/v) was found to be 5%. In addition, the cell viability result in series [3] (10% and 20% DMSO, particularly in cryopreserved samples) is “viability decreased”.

Consider `Cn1nnc2c(C(N)=O)ncn2c1=O` [TMZ], for which, in series [1] (cryopreserved spheroids, comparable doses), the “metabolic activity and viability compared to normally grown spheroids” value is “slightly higher metabolic activity and viability”. Moreover, the response timing result in series [1] (cryopreserved spheroids, more substantial reductions at 400 μM and 800 μM) is reported as “slightly delayed responses”. In addition, in series [1] (doses ≥100 μM, both normal and cryopreserved spheroids), the metabolic activity result is given as “metabolic activity was suppressed”. The viability entry in series [3] (400 μM) and in series [3] (800 μM) was “below 30%” in each case.
